Assay results reported in patent publication US9630977B2, “Cephalosporin derivatives and pharmaceutical compositions thereof” (Legochem Biosciences, Inc., priority 2011, dated 2017).
≈ marks a conversion by molar mass, not a printed value. Read-outs that look alike come from different tables or passages of the source.

Experiments:
Assay type in all cases: cell-based
[1] = test system: K. pneumoniae (38 clinical isolates); assay: Antibacterial activity on representative drug-resistance bacteria: number of clinical isolates per MIC value; conditions: K. pneumomiae (N = 38)
Description: (§1) The in vitro antibacterial activity was evaluated by measuring MIC90 (ug/mL) of each of the compounds of Examples 1 to 68, which is defined as the lowest concentration of an antibiotic that will inhibit the visible growth of 90% of microorganisms after incubation as compared with a control group to which the antibiotic is not treated. MIC90 values were measured by the broth microdilution method developed by the Clinical and Laboratory Standards Institute (CLSI) (see CLSI M7-A5, Methods for Dilution Antimicrobial Susceptibility Test for Bacteria that Grow Aerobically-Fifth Edition (2000): CLSI, Villanova, Pa.).
(§2) Test compounds each (the cephalosporin derivative compounds prepared in Examples 1 to 68) were dissolved in DMSO at the concentration of 10,240 ug/mL, were diluted by two fold with DMSO, and then were diluted by twenty fold with sterilized distilled water. The final concentration in the antibacterial activity test was in the range of […] to 128 ug/mL, and the final concentration of DMSO used as an adjuvant was 2.5% (V/V).

[2] = test system: A. baumannii (6 clinical isolates); assay: as above; conditions: MIC >16 ug/mL; A. baumanni (N = 6)
Description: as §1, §2

[3] = test system: P. aeruginosa (16 clinical isolates); assay: as above; conditions: P. aeruginosa (N = 16)
Description: as §1, §2

A. baumannii 52 = assay: In vitro antibacterial activity test (broth microdilution); conditions: Acinetobacter baumannii
In short: (§3)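 Clinical isolates; CLSI broth microdilution; MIC90 in ug/mL; final compound range 0.0626–128 ug/mL; DMSO 2.5% (V/V) final.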

K. pneumoniae β14 = assay: as above; conditions: Klebsiella pneumoniae
In short: as §3

P. aeruginosa 1912E = assay: as above; conditions: Pseudomonas aeruginosa, 1912E
In short: as §3

A. baumannii 49 = assay: as above
In short: as §3

A. baumannii 46 = assay: as above
In short: as §3

K. pneumoniae β13 = assay: as above; conditions: Klebsiella pneumoniae
In short: as §3

P. aeruginosa 40 = assay: as above
In short: as §3

K. pneumoniae β9 = assay: as above; conditions: Klebsiella pneumoniae
In short: as §3

P. aeruginosa 37 = assay: as above; conditions: Pseudomonas aeruginosa, 37, P. aeruginosa 37
In short: as §3

E. coli AG100 = assay: as above; conditions: Escherichia coli
In short: as §3

K. pneumoniae β10 = assay: as above; conditions: Klebsiella pneumoniae
In short: as §3

P. aeruginosa 43 = assay: as above; conditions: Pseudomonas aeruginosa
In short: as §3

E. cloacae β19 = assay: as above; conditions: Enterobacter cloacae
In short: as §3

M. catarrhalis 2524 = assay: as above; conditions: Moraxella catarrhalis
In short: as §3

E. coli β4 = assay: as above; conditions: Escherichia coli
In short: as §3

K. pneumoniae β11 = assay: as above; conditions: Klebsiella pneumoniae
In short: as §3

K. pneumoniae 2011E = assay: as above; conditions: Klebsiella pneumoniae, 2011E
In short: as §3

[4] = test system: A. calcoaceticus ATCC15473; assay: as above; conditions: Acinetobacter calcoaceticus
In short: as §3

P. aeruginosa 6065Y = assay: as above; conditions: Pseudomonas aeruginosa
In short: as §3

Structure (SMILES): Cn1c(N)c(NC(=O)NCCN)c[n+]1CC1=C(C(=O)O)N2C(=O)[C@@H](NC(=O)/C(=N\OC(C)(C)C(=O)[O-])c3nsc(N)n3)[C@H]2SC1 [CXA-101, reference compound]
- number of clinical isolates that showed the respective MIC value ([1]; MIC 1 ug/mL): 1
- number of clinical isolates that showed the respective MIC value ([1]; MIC 2 ug/mL): 1
- number of clinical isolates that showed the respective MIC value ([1]; MIC 16 ug/mL): 1
- number of clinical isolates that showed the respective MIC value ([1]; MIC >16 ug/mL): 35
- number of clinical isolates that showed the respective MIC value [2]: 6
- number of clinical isolates that showed the respective MIC value ([3]; MIC 2 ug/mL): 4
- number of clinical isolates that showed the respective MIC value ([3]; MIC 4 ug/mL): 4
- number of clinical isolates that showed the respective MIC value ([3]; MIC 8 ug/mL): 1
- number of clinical isolates that showed the respective MIC value ([3]; MIC >16 ug/mL): 7

Structure (SMILES): CC(C)(O/N=C(\C(=O)N[C@@H]1C(=O)N2C(C(=O)[O-])=C(C[n+]3cnc(N)c(NC(=O)CCNC(=O)c4cc(=O)c(O)cn4O)c3)CSC12)c1nc(N)sc1Cl)C(=O)O (some centres unmarked) [Compound 18]
- MIC90 (A. baumannii 52; A. baumannii 52, read-out: MIC90): 2 µg/mL (≈ 2.39 µM)
- MIC90 (K. pneumoniae β14; read-out: MIC90): 128 µg/mL (≈ 153 µM)
- MIC90 (P. aeruginosa 1912E; read-out: MIC90): 1 µg/mL (≈ 1.2 µM)
- MIC90 (A. baumannii 49; Acinetobacter baumannii, A. baumannii 49, read-out: MIC90): 8 µg/mL (≈ 9.57 µM)
- MIC90 (A. baumannii 46; Acinetobacter baumannii, A. baumannii 46, read-out: MIC90): 128 µg/mL (≈ 153 µM)
- MIC90 (K. pneumoniae β13; K. pneumoniae β13, read-out: MIC90): 4 µg/mL (≈ 4.78 µM)
- MIC90 (P. aeruginosa 40; Pseudomonas aeruginosa, 40, P. aeruginosa 40, read-out: MIC90): 2 µg/mL (≈ 2.39 µM)
- MIC90 (K. pneumoniae β9; K. pneumoniae β9, read-out: MIC90): 8 µg/mL (≈ 9.57 µM)
- MIC90 (P. aeruginosa 37; read-out: MIC90): 0.25 µg/mL (≈ 0.299 µM)
- MIC90 (E. coli AG100; AG100, E. coli AG100, read-out: MIC90): 2 µg/mL (≈ 2.39 µM)
- MIC90 (K. pneumoniae β10; K. pneumoniae β10, read-out: MIC90): 4 µg/mL (≈ 4.78 µM)
- MIC90 (P. aeruginosa 43; P. aeruginosa 43, read-out: MIC90): 0.25 µg/mL (≈ 0.299 µM)
- MIC90 (E. cloacae β19; read-out: MIC90): 64 µg/mL (≈ 76.5 µM)
- MIC90 (M. catarrhalis 2524; M. catarrhalis 2524, read-out: MIC90): 0.5 µg/mL (≈ 0.598 µM)
- MIC90 (E. coli β4; read-out: MIC90): 16 µg/mL (≈ 19.1 µM)
- MIC90 (K. pneumoniae β11; K. pneumoniae β11, read-out: MIC90): 64 µg/mL (≈ 76.5 µM)
- MIC90 (K. pneumoniae 2011E; K. pneumoniae 2011E, read-out: MIC90): 16 µg/mL (≈ 19.1 µM)
- MIC90 ([4]; A. calcoaceticus ATCC15473, read-out: MIC90): 1 µg/mL (≈ 1.2 µM)
- MIC90 (P. aeruginosa 6065Y; read-out: MIC90): 2 µg/mL (≈ 2.39 µM)

Structure (SMILES): CC(C)(O/N=C(\C(=O)N[C@@H]1C(=O)N2C(C(=O)[O-])=C(/C=C/C[n+]3cnc(N)c(NC(=O)CCCN)c3)CSC12)c1nc(N)sc1Cl)C(=O)O (some centres unmarked) [Compound 64]
- MIC90 (A. baumannii 52; 52): 32 µg/mL (≈ 44.2 µM)
- MIC90 (K. pneumoniae β14): 2 µg/mL (≈ 2.77 µM)
- MIC90 (P. aeruginosa 1912E): 4 µg/mL (≈ 5.53 µM)
- MIC90 (A. baumannii 49; Acinetobacter baumannii, 49, A. baumannii 49): 32 µg/mL (≈ 44.2 µM)
- MIC90 (A. baumannii 46; Acinetobacter baumannii, 46, A. baumannii 46): 16 µg/mL (≈ 22.1 µM)
- MIC90 (K. pneumoniae β13): 2 µg/mL (≈ 2.77 µM)
- MIC90 (P. aeruginosa 40; Pseudomonas aeruginosa, 40): 8 µg/mL (≈ 11.1 µM)
- MIC90 (K. pneumoniae β9): 2 µg/mL (≈ 2.77 µM)
- MIC90 (P. aeruginosa 37): 16 µg/mL (≈ 22.1 µM)
- MIC90 (E. coli AG100; AG100): 0.5 µg/mL (≈ 0.691 µM)
- MIC90 (K. pneumoniae β10): 1 µg/mL (≈ 1.38 µM)
- MIC90 (P. aeruginosa 43; 43): 128 µg/mL (≈ 177 µM)
- MIC90 (E. cloacae β19): 8 µg/mL (≈ 11.1 µM)
- MIC90 (M. catarrhalis 2524; 2524): < 0.0625 µg/mL
- MIC90 (E. coli β4): 1 µg/mL (≈ 1.38 µM)
- MIC90 (K. pneumoniae β11): 8 µg/mL (≈ 11.1 µM)
- MIC90 (K. pneumoniae 2011E): 2 µg/mL (≈ 2.77 µM)
- MIC90 ([4]; ATCC15473, A. calcoaceticus ATCC15473): 1 µg/mL (≈ 1.38 µM)
- MIC90 (P. aeruginosa 6065Y; 6065Y): 32 µg/mL (≈ 44.2 µM)
